# According to article PMC5218480 (PLoS ONE, 2017):
# System: MV-4-11 cells
# Assay: Gene expression microarray analysis (Affymetrix PrimeView) and GSEA
# Type: cell-based, human
# Parameters: RFU PODN (11730768_x_at) / Fold change /veh PODN (11730768_x_at) / RFU LINC00158 (11744669_a_at) / Fold change /veh LINC00158 (11744669_a_at) / RFU DUSP10 (11751237_a_at) / Fold change /veh DUSP10 (11751237_a_at) / RFU ID3 (11757404_x_at) / Fold change /veh ID3 (11757404_x_at) / RFU PLEKHG5 (11737974_s_at) / Fold change /veh PLEKHG5 (11737974_s_at) / RFU LRRC4B (11730491_at) / Fold change /veh LRRC4B (11730491_at) / RFU GIMAP4 (11747438_a_at) / Fold change /veh GIMAP4 (11747438_a_at) / RFU KRT8 (11758183_x_at) / Fold change /veh KRT8 (11758183_x_at) / RFU CNN1 (11734310_a_at) / Fold change /veh CNN1 (11734310_a_at) / RFU VPS37D (11726825_at) / Fold change /veh VPS37D (11726825_at) / RFU C10orf10 (11716522_x_at) / Fold change /veh C10orf10 (11716522_x_at) / RFU KIR2DL2 /// KIR2DL4 /// KIR2DL5A /// KIR2DL5B /// KIR2DS1 /// KIR2DS2 /// KIR2DS3 /// KIR2DS4 /// KIR3DL3 /// KIR3DL3 /// KIR3DS1 (11738374_at) / Fold change /veh KIR2DL2 /// KIR2DL4 /// KIR2DL5A /// KIR2DL5B /// KIR2DS1 /// KIR2DS2 /// KIR2DS3 /// KIR2DS4 /// KIR3DL3 /// KIR3DL3 /// KIR3DS1 (11738374_at) / RFU C1QL1 (11718748_at) / Fold change /veh C1QL1 (11718748_at) / RFU TMPRSS4 (11747572_a_at) / Fold change /veh TMPRSS4 (11747572_a_at) / RFU HAMP (11756126_x_at) / Fold change /veh HAMP (11756126_x_at) / RFU RNFT2 (11725882_a_at) / Fold change /veh RNFT2 (11725882_a_at) / RFU NR4A2 (11747474_a_at) / Fold change /veh NR4A2 (11747474_a_at) / RFU ABCC12 (11746883_a_at) / Fold change /veh ABCC12 (11746883_a_at) / RFU TMEM136 (11760407_x_at) / Fold change /veh TMEM136 (11760407_x_at) / RFU CLDN22 /// WWC2 (11732394_at) / Fold change /veh CLDN22 /// WWC2 (11732394_at) / RFU HLA-DPB1 (11760878_x_at) / Fold change /veh HLA-DPB1 (11760878_x_at) / RFU SPINT1 (11716480_a_at) / Fold change /veh SPINT1 (11716480_a_at) / RFU GAP43 (11754022_s_at) / Fold change /veh GAP43 (11754022_s_at) / RFU A4GNT (11735810_at) / Fold change /veh A4GNT (11735810_at) / RFU PRB3 (11715151_x_at) / Fold change /veh PRB3 (11715151_x_at) / RFU TUBB4B (11761932_at) / Fold change /veh TUBB4B (11761932_at) / RFU CAPN14 (11732068_a_at) / Fold change /veh CAPN14 (11732068_a_at) / RFU TMCC2 (11721928_a_at) / Fold change /veh TMCC2 (11721928_a_at) / RFU IRGQ (11745062_a_at) / Fold change /veh IRGQ (11745062_a_at) / RFU FAM174B (11720279_a_at) / Fold change /veh FAM174B (11720279_a_at) / RFU TMPRSS4 (11748680_a_at) / Fold change /veh TMPRSS4 (11748680_a_at) / RFU FAM212B (11763350_a_at) / Fold change /veh FAM212B (11763350_a_at) / RFU PLEKHG5 (11743358_a_at) / Fold change /veh PLEKHG5 (11743358_a_at) / RFU ZSCAN30 (11745921_a_at) / Fold change /veh ZSCAN30 (11745921_a_at) / RFU CMKLR1 (11741424_a_at) / Fold change /veh CMKLR1 (11741424_a_at) / RFU LOC101060620 /// MAPK8IP1 (11723275_at) / Fold change /veh LOC101060620 /// MAPK8IP1 (11723275_at) / RFU SPTSSB (11747773_x_at) / Fold change /veh SPTSSB (11747773_x_at) / RFU PRSS12 (11739890_at) / Fold change /veh PRSS12 (11739890_at) / RFU BIN1 (11741810_x_at) / Fold change /veh BIN1 (11741810_x_at) / RFU WNT11 (11732464_a_at) / Fold change /veh WNT11 (11732464_a_at) / RFU C10orf10 (11716521_a_at) / Fold change /veh C10orf10 (11716521_a_at) / RFU C5orf56 (11738089_at) / Fold change /veh C5orf56 (11738089_at) / RFU CYB561 (11721691_x_at) / Fold change /veh CYB561 (11721691_x_at) / RFU ANKRD19P (11752326_a_at) / Fold change /veh ANKRD19P (11752326_a_at) / RFU OR2T12 /// OR2T33 /// OR2T8 (11738714_s_at) / Fold change /veh OR2T12 /// OR2T33 /// OR2T8 (11738714_s_at) / RFU VCAN (11748164_a_at) / Fold change /veh VCAN (11748164_a_at) / RFU JSRP1 (11732532_at) / Fold change /veh JSRP1 (11732532_at) / RFU KRTAP10-11 (11738290_x_at) / Fold change /veh KRTAP10-11 (11738290_x_at) / RFU MYO3A (11730013_a_at) / Fold change /veh MYO3A (11730013_a_at) / RFU EBF3 (11725865_a_at) / Fold change /veh EBF3 (11725865_a_at) / RFU CAMK2N1 (11719241_x_at) / Fold change /veh CAMK2N1 (11719241_x_at) / RFU C5orf56 (11738088_a_at) / Fold change /veh C5orf56 (11738088_a_at) / RFU OLFML3 (11715873_a_at) / Fold change /veh OLFML3 (11715873_a_at) / RFU LOC100653217 /// NTM (11731650_a_at) / Fold change /veh LOC100653217 /// NTM (11731650_a_at) / RFU MAPK11 (11762145_a_at) / Fold change /veh MAPK11 (11762145_a_at) / RFU FIZ1 (11724087_x_at) / Fold change /veh FIZ1 (11724087_x_at) / RFU OASL (11726364_x_at) / Fold change /veh OASL (11726364_x_at) / RFU SOX15 (11748057_x_at) / Fold change /veh SOX15 (11748057_x_at) / RFU CD79A (11719716_a_at) / Fold change /veh CD79A (11719716_a_at) / RFU HIST1H1D (11736915_at) / Fold change /veh HIST1H1D (11736915_at) / RFU CASKIN2 (11723855_a_at) / Fold change /veh CASKIN2 (11723855_a_at) / RFU LOC730098 (11760151_x_at) / Fold change /veh LOC730098 (11760151_x_at) / RFU OR4N2 (11742367_at) / Fold change /veh OR4N2 (11742367_at) / RFU PRRT2 (11749266_a_at) / Fold change /veh PRRT2 (11749266_a_at) / RFU SNX32 (11753110_a_at) / Fold change /veh SNX32 (11753110_a_at) / RFU CDHR5 (11726645_a_at) / Fold change /veh CDHR5 (11726645_a_at) / RFU RCAN1 (11760418_a_at) / Fold change /veh RCAN1 (11760418_a_at) / RFU FAM167A (11723789_a_at) / Fold change /veh FAM167A (11723789_a_at) / RFU FAM26E (11764081_at) / Fold change /veh FAM26E (11764081_at) / RFU ISYNA1 (11749810_s_at) / Fold change /veh ISYNA1 (11749810_s_at) / RFU ACY1 (11761880_at) / Fold change /veh ACY1 (11761880_at) / RFU 11764098_at / Fold change /veh 11764098_at / RFU SAMD14 (11745864_x_at) / Fold change /veh SAMD14 (11745864_x_at) / RFU NPB (11741838_a_at) / Fold change /veh NPB (11741838_a_at) / RFU TMPRSS6 (11731388_a_at) / Fold change /veh TMPRSS6 (11731388_a_at) / RFU KRTAP10-2 (11738614_at) / Fold change /veh KRTAP10-2 (11738614_at) / RFU ARHGAP8 /// PRR5-ARHGAP8 (11727945_x_at) / Fold change /veh ARHGAP8 /// PRR5-ARHGAP8 (11727945_x_at) / RFU KRTAP5-7 /// NADSYN1 (11734609_at) / Fold change /veh KRTAP5-7 /// NADSYN1 (11734609_at) / RFU RASL12 (11751679_a_at) / Fold change /veh RASL12 (11751679_a_at) / RFU CDKN2B (11736163_a_at) / Fold change /veh CDKN2B (11736163_a_at) / RFU PRF1 (11729649_at) / Fold change /veh PRF1 (11729649_at) / RFU, ZNF638 /// ZNF638-IT1 / Fold change vs veh, ZNF638 /// ZNF638-IT1 / RFU, PANK3 / Fold change vs veh, PANK3 / RFU, SH3YL1 / Fold change vs veh, SH3YL1 / RFU, ZEB2 / Fold change vs veh, ZEB2 / RFU, NRIP1 / Fold change vs veh, NRIP1 / RFU, PTTG1IP / Fold change vs veh, PTTG1IP / RFU, CAPN2 / Fold change vs veh, CAPN2 / RFU, MED14 / Fold change vs veh, MED14 / RFU, SNORA58 / Fold change vs veh, SNORA58 / RFU, C1orf63 / Fold change vs veh, C1orf63 / RFU, LRRFIP1 / Fold change vs veh, LRRFIP1 / RFU, NDUFAF7 / Fold change vs veh, NDUFAF7 / RFU, SLC12A2 / Fold change vs veh, SLC12A2 / RFU, IBTK / Fold change vs veh, IBTK / RFU, ESF1 / Fold change vs veh, ESF1 / Fold change vs veh, TMEM50B / RFU, TAOK1 / Fold change vs veh, TAOK1 / RFU, ACBD3 / Fold change vs veh, ACBD3 / RFU, TMA16 / Fold change vs veh, TMA16 / RFU, RWDD3 / Fold change vs veh, RWDD3 / RFU, BCAT1 / Fold change vs veh, BCAT1 / RFU, EDEM3 / Fold change vs veh, EDEM3 / RFU, TMEM33 / Fold change vs veh, TMEM33 / RFU, WDR75 / Fold change vs veh, WDR75 / RFU, AHCTF1 / Fold change vs veh, AHCTF1 / RFU, TFRC / Fold change vs veh, TFRC / RFU, ZDHHC17 / Fold change vs veh, ZDHHC17 / RFU, NOM1 / Fold change vs veh, NOM1 / RFU, ARL8B / Fold change vs veh, ARL8B / RFU, ZBTB11 / Fold change vs veh, ZBTB11 / RFU, TAMM41 / Fold change vs veh, TAMM41 / RFU, KIAA1704 /// LOC100996395 / Fold change vs veh, KIAA1704 /// LOC100996395 / RFU, ING1 / Fold change vs veh, ING1 / RFU, TRMT61B / Fold change vs veh, TRMT61B / RFU, FUBP3 / Fold change vs veh, FUBP3 / RFU, TP53 / Fold change vs veh, TP53 / RFU, TNKS2 / Fold change vs veh, TNKS2 / RFU, ZFP14 / Fold change vs veh, ZFP14 / RFU, ACTR2 / Fold change vs veh, ACTR2 / RFU, PPP3R1 / Fold change vs veh, PPP3R1 / RFU, PIK3R1 / Fold change vs veh, PIK3R1 / RFU, HNRNPA1 / Fold change vs veh, HNRNPA1 / RFU, RNF170 / Fold change vs veh, RNF170 / RFU, ZNF28 / Fold change vs veh, ZNF28 / RFU, RNGTT / Fold change vs veh, RNGTT / RFU, OGT / Fold change vs veh, OGT / RFU, BRD1 / Fold change vs veh, BRD1 / RFU, MARS / Fold change vs veh, MARS / RFU, ZNF655 / Fold change vs veh, ZNF655 / RFU, FAHD1 / Fold change vs veh, FAHD1 / RFU, BDP1 / Fold change vs veh, BDP1 / RFU, LRRCC1 / Fold change vs veh, LRRCC1 / RFU, ARID1A / Fold change vs veh, ARID1A / RFU, ZNF146 / Fold change vs veh, ZNF146 / RFU, ZNF330 / Fold change vs veh, ZNF330 / RFU, GPN3 / Fold change vs veh, GPN3 / RFU, C9orf123 / Fold change vs veh, C9orf123 / RFU, N4BP2L2 / Fold change vs veh, N4BP2L2 / RFU, ARFIP1 / Fold change vs veh, ARFIP1 / RFU, FAM179B / Fold change vs veh, FAM179B / RFU, BCL10 / Fold change vs veh, BCL10 / RFU, UHRF1BP1L / Fold change vs veh, UHRF1BP1L / RFU, BET1 / Fold change vs veh, BET1 / RFU, CNOT2 / Fold change vs veh, CNOT2 / RFU, ZNF268 / Fold change vs veh, ZNF268 / Fold change vs veh, ZNF507 / RFU, DGCR2 / Fold change vs veh, DGCR2 / RFU, WDSUB1 / Fold change vs veh, WDSUB1 / Fold change vs veh, HSP90B1 /// MIR3652 / RFU, ADSS / Fold change vs veh, ADSS / RFU, GK / Fold change vs veh, GK / RFU, ZNF148 / Fold change vs veh, ZNF148 / RFU, TAF9 / Fold change vs veh, TAF9 / RFU, SLC1A5 / Fold change vs veh, SLC1A5 / RFU, SLMO2 / Fold change vs veh, SLMO2 / RFU, ABCC4 / Fold change vs veh, ABCC4 / RFU, LOC101060439 /// RAP1B / Fold change vs veh, LOC101060439 /// RAP1B / RFU, RFX7 / Fold change vs veh, RFX7 / RFU, GTPBP10 / Fold change vs veh, GTPBP10 / RFU, CNEP1R1 / Fold change vs veh, CNEP1R1 / RFU, BIVM-ERCC5 /// ERCC5 / Fold change vs veh, BIVM-ERCC5 /// ERCC5 / RFU, ILF3 / Fold change vs veh, ILF3 / RFU 11762660_at / Fold change /veh 11762660_at / RFU VCAN (11757783_s_at) / Fold change /veh VCAN (11757783_s_at) / RFU DDX43 (11728927_at) / Fold change /veh DDX43 (11728927_at) / RFU KRT8 (11758188_x_at) / Fold change /veh KRT8 (11758188_x_at) / RFU NKD1 (11759106_at) / Fold change /veh NKD1 (11759106_at) / RFU SRD5A1 (11742802_a_at) / Fold change /veh SRD5A1 (11742802_a_at) / RFU TPSAB1 /// TPSB2 (11721975_s_at) / Fold change /veh TPSAB1 /// TPSB2 (11721975_s_at) / RFU GSTM3 (11746129_a_at) / Fold change /veh GSTM3 (11746129_a_at) / RFU IL23R (11737362_x_at) / Fold change /veh IL23R (11737362_x_at) / RFU TMEM51 (11727254_a_at) / Fold change /veh TMEM51 (11727254_a_at) / RFU PIWIL2 (11732686_x_at) / Fold change /veh PIWIL2 (11732686_x_at) / RFU ORM1 (11744905_x_at) / Fold change /veh ORM1 (11744905_x_at) / RFU CCDC152 (11743942_at) / Fold change /veh CCDC152 (11743942_at) / RFU ECM1 (11717891_a_at) / Fold change /veh ECM1 (11717891_a_at) / RFU IL23R (11748794_a_at) / Fold change /veh IL23R (11748794_a_at) / RFU TNFAIP8L3 (11732012_x_at) / Fold change /veh TNFAIP8L3 (11732012_x_at) / RFU MBOAT4 (11741988_at) / Fold change /veh MBOAT4 (11741988_at) / RFU 11764193_at / Fold change /veh 11764193_at / RFU TMEM53 (11763286_at) / Fold change /veh TMEM53 (11763286_at) / RFU MAGEB2 (11727129_at) / Fold change /veh MAGEB2 (11727129_at) / RFU TMEM200A (11744735_a_at) / Fold change /veh TMEM200A (11744735_a_at) / RFU CCDC152 (11751479_a_at) / Fold change /veh CCDC152 (11751479_a_at) / RFU FAM211A (11726209_a_at) / Fold change /veh FAM211A (11726209_a_at) / RFU RGS16 (11746705_a_at) / Fold change /veh RGS16 (11746705_a_at) / RFU VCAN (11755009_s_at) / Fold change /veh VCAN (11755009_s_at) / RFU RHOB (11743442_s_at) / Fold change /veh RHOB (11743442_s_at) / RFU RGS16 (11720943_a_at) / Fold change /veh RGS16 (11720943_a_at) / RFU RGS16 (11720944_at) / Fold change /veh RGS16 (11720944_at) / RFU, VPS4B / Fold change vs veh, VPS4B / RFU, CREB1 / Fold change vs veh, CREB1 / RFU, DNAJC13 / Fold change vs veh, DNAJC13 / RFU, GNAQ / Fold change vs veh, GNAQ / RFU, CDK5R1 / Fold change vs veh, CDK5R1 / RFU, ZRANB3 / Fold change vs veh, ZRANB3 / RFU, CUL4A / Fold change vs veh, CUL4A / RFU, CCNY / Fold change vs veh, CCNY / RFU, UFL1 / Fold change vs veh, UFL1 / RFU, COG3 / Fold change vs veh, COG3 / RFU, DIAPH2 / Fold change vs veh, DIAPH2 / RFU, SKA2 / Fold change vs veh, SKA2 / RFU, AFF3 / Fold change vs veh, AFF3 / RFU, LMF1 / Fold change vs veh, LMF1 / RFU, IPO11 / Fold change vs veh, IPO11 / RFU, DFFB / Fold change vs veh, DFFB / RFU, FOXP1 / Fold change vs veh, FOXP1 / RFU, CARD8 / Fold change vs veh, CARD8 / RFU, STRN3 / Fold change vs veh, STRN3 / RFU, ADK / Fold change vs veh, ADK / RFU, RASSF2 / Fold change vs veh, RASSF2 / RFU, WIPF1 / Fold change vs veh, WIPF1 / RFU, LARP1B / Fold change vs veh, LARP1B / RFU, RASA1 / Fold change vs veh, RASA1 / RFU, RB1 / Fold change vs veh, RB1 / RFU, PPFIA1 / Fold change vs veh, PPFIA1 / RFU, MAT2A / Fold change vs veh, MAT2A / RFU, CCT5 / Fold change vs veh, CCT5 / RFU, WDR92 / Fold change vs veh, WDR92 / RFU, CUX1 / Fold change vs veh, CUX1 / RFU, TTC7A / Fold change vs veh, TTC7A / RFU, TMEM135 / Fold change vs veh, TMEM135 / RFU, DEPTOR / Fold change vs veh, DEPTOR / RFU, CPM / Fold change vs veh, CPM / RFU, DNAJB6 / Fold change vs veh, DNAJB6 / RFU, CACNA2D3 / Fold change vs veh, CACNA2D3 / RFU, DTX4 / Fold change vs veh, DTX4 / RFU, TFCP2 / Fold change vs veh, TFCP2 / RFU, GMCL1 /// GMCL1P1 / Fold change vs veh, GMCL1 /// GMCL1P1 / RFU, AEBP2 / Fold change vs veh, AEBP2 / RFU, SNHG1 /// SNORD22 /// SNORD25 /// SNORD26 /// SNORD27 /// SNORD28 /// SNORD29 /// SNORD31 / Fold change vs veh, SNHG1 /// SNORD22 /// SNORD25 /// SNORD26 /// SNORD27 /// SNORD28 /// SNORD29 /// SNORD31 / Fold change (Aza/veh), C12orf56 (ProbeSet 11735607_a_at) / Fold change (ACY-1035/veh), C12orf56 (ProbeSet 11735607_a_at) / Fold change (Aza/veh), FGFR1OP (ProbeSet 11751329_s_at) / Fold change (ACY-1035/veh), FGFR1OP (ProbeSet 11751329_s_at) / Fold change (Aza/veh), VPS36 (ProbeSet 11739960_a_at) / Fold change (ACY-1035/veh), VPS36 (ProbeSet 11739960_a_at) / RFU SYPL1 (11715823_x_at) / Fold change /veh SYPL1 (11715823_x_at) / RFU IGFBP7 (11715501_s_at) / Fold change /veh IGFBP7 (11715501_s_at) / RFU REEP3 (11722064_at) / Fold change /veh REEP3 (11722064_at) / RFU IGLL1 (11728026_x_at) / Fold change /veh IGLL1 (11728026_x_at): dose or concentration left out as unconfirmed
# Conditions: MV-4-11 cells, 48 hours
smiles,measurement,value
Nc1ccc(-c2cccs2)cc1NC(=O)c1ccc2c(c1)cc(C1CC1)n2CCN1CCOCC1 [ACY-1035],RFU GAP43 (11754022_s_at),68.94 RFU
